Source: BigSolDB 2.1

O=C(O)Cn1cnnn1
Conditions	solubility (mole fraction)
in acetone, 288.23 K	0.0964
in acetone, 293.32 K	0.105
in acetone, 298.24 K	0.115
in acetone, 303.31 K	0.125
in acetone, 308.18 K	0.136
in acetone, 313.26 K	0.149
in acetone, 318.27 K	0.162
in acetone, 323.23 K	0.175
in ethanol, 283.27 K	0.0517
in ethanol, 288.17 K	0.0621
in ethanol, 293.46 K	0.075
in ethanol, 298.22 K	0.0891
in ethanol, 303.31 K	0.108
in ethanol, 308.17 K	0.129
in ethanol, 313.23 K	0.157
in ethanol, 318.21 K	0.189
in ethanol, 323.26 K	0.229
in ethyl acetate, 288.27 K	0.0121
in ethyl acetate, 293.28 K	0.0138
in ethyl acetate, 298.19 K	0.0154
in ethyl acetate, 303.31 K	0.0173
in ethyl acetate, 308.22 K	0.0193
in ethyl acetate, 313.26 K	0.0218
in ethyl acetate, 318.16 K	0.0246
in ethyl acetate, 323.21 K	0.0281
in isopropanol, 288.17 K	0.0282
in isopropanol, 293.22 K	0.0374
in isopropanol, 298.26 K	0.0491
in isopropanol, 303.2 K	0.063
in isopropanol, 308.21 K	0.0794
in isopropanol, 313.29 K	0.0985
in isopropanol, 318.24 K	0.119
in isopropanol, 323.27 K	0.143
in methanol, 288.18 K	0.145
in methanol, 293.29 K	0.155
in methanol, 298.23 K	0.173
in methanol, 303.22 K	0.199
in methanol, 308.24 K	0.233
in methanol, 313.34 K	0.276
in methanol, 318.22 K	0.326
in methanol, 323.19 K	0.383
in n-butyl acetate, 288.22 K	0.00443
in n-butyl acetate, 293.3 K	0.00483
in n-butyl acetate, 298.33 K	0.00552
in n-butyl acetate, 303.18 K	0.00647
in n-butyl acetate, 308.22 K	0.00773
in n-butyl acetate, 313.3 K	0.00931
in n-butyl acetate, 318.24 K	0.0111
in n-butyl acetate, 323.28 K	0.0133
in n-propanol, 288.27 K	0.0312
in n-propanol, 293.21 K	0.0386
in n-propanol, 298.23 K	0.0464
in n-propanol, 303.29 K	0.0557
in n-propanol, 308.33 K	0.068
in n-propanol, 313.18 K	0.0839
in n-propanol, 318.22 K	0.106
in n-propanol, 323.32 K	0.135
in water, 283.17 K	0.00729
in water, 288.31 K	0.0109
in water, 293.28 K	0.016
in water, 298.24 K	0.0234
in water, 303.19 K	0.0348
in water, 308.3 K	0.0549
in water, 313.17 K	0.0826
in water, 318.22 K	0.122
in water, 323.16 K	0.173
